Measurements reported in publication PMC11720140, “Evaluation of the Anti-Amyloid and Anti-Inflammatory Properties of a Novel Vanadium(IV)–Curcumin Complex in Lipopolysaccharides-Stimulated Primary Rat Neuron-Microglia Mixed Cultures” (International Journal of Molecular Sciences, 2024).

Target: T1, human insulin (HI) (Homo sapiens, UniProt P01308)
T1 construct: gene INS; HI (Actrapid)
Experiment: Thioflavin-T fibrillation assay with insulin ([…] HCl, pH […] °C, […] h)
Type: biochemical

T1 sequence (P01308 25-54): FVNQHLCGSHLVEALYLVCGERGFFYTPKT
T1 sequence (P01308 90-110): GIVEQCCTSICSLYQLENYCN

COc1cc(/C=C/C(=O)CC(=O)/C=C/c2ccc(O)c(OC)c2)ccc1O [Curcumin]
EC50: 44.1 µM
